{"source": "patent US7507749B2", "about": "“Antitumor agents” (priority 2001, dated 2009)", "key": {"[1]": {"tested_on": "mammary adenocarcinoma-17/Adr", "experiment": "Test E: R-enantiomer of compound 22b and compound 22a against early stage mammary adenocarcinoma-17/Adr", "format": "in vivo", "method": "Then, P.B.S. was added and the pH adjusted to 7 with HCl. A volume of 0.2 ml per injection was administered to animals intravenously. […] Then, P.B.S. was added and the pH was adjusted to 7 with HCl. A volume of 0.2 ml per injection was administered to animals intravenously."}, "colon carcinoma 26": {"tested_on": "colon carcinoma 26", "details": "Cg 3; IV 50 mg/kg/inj days 6,8,10,13,15; total 250 mg/kg", "method": "In this trial the R-enantiomers of XK-469, compound 22c, and compound 22b were compared against advanced staged colon carcinoma 26 in female Balb/c mice. […] Cage #2 was 22b at 400 mg/kg and Cage #4 was 22c at 400 mg/kg.\nThe XK469-R, 22b, and 22c compound doses were all prepared the same, using 3% ethanol, 1% POE-80, and 0.5% sodium bicarbonate. The injection volume was 0.2 mu/mouse IV. […] The mice were Balb/c female mice: DOB Feb. 12, 2001; DOA Mar. 27, 2001; DOT Sep. 8, 2001, with an average body weight of 24.7 grams at the start of Rx administration. The tumor was Colon Carcinoma-26 passage 141; date of implant Sep. 8, 2001, and implanted at 30 to 60 mg fragments bilaterally SC. All tumors were 63 to 171 mg on day 6, the day of first Rx."}, "[2]": {"tested_on": "mammary adenocarcinoma-16/C", "experiment": "Test F: R-enantiomers of 22b and 22c against early staged mammary adenocarcinoma-16/C", "format": "in vivo, C3H female mice", "method": "C3H female mice were obtained from N.C.I. (D.O.B. was […]; D.O.A. was Jan. 27, 2001). The mice weighed an average of 19.2 gm. Mice were implanted SC with mammary adenocarcinoma-16/C passage-170, a fast growing, highly invasive, highly metastatic tumor (D.O.T. was Mar. 8, 2001; Td was 1.2 days).\nThe R-enantiomers of both Compound 22c and Compound 22b were each suspended in 3% ethanol, 1% POE-80, 0.5% sodium bicarbonate (by volume) to effect solution, P.B.S. was then added and the pH adjusted to 7 with HCl. Adriamycin (ADRIA; lot number 20338c) was suspended in dH2O to effect solution and the pH was adjusted to 6.0. Mice were administered 0.2 ml per IV injection."}, "[3]": {"details": "Cage 6, IV 83 mg/kg/inj qd 1-4, total 332 mg/kg"}, "[4]": {"details": "Cage 7, IV 55 mg/kg/inj qd 1-4, total 220 mg/kg"}, "[5]": {"details": "Cage 7, IV 55 mg/kg/inj qd 1-4, total 220 mg/kg, listed as R-enantiomer of compound 22b"}, "[6]": {"details": "Cage 8 (one mouse), IV single bolus 124.5 mg/kg day 1"}, "[7]": {"details": "Cage 5, IV 50 mg/kg/inj qd 1-5, total 250 mg/kg"}, "[8]": {"details": "Cage 5, IV 50 mg/kg/inj qd 1-5, total 250 mg/kg, listed as R-enantiomer of compound 22b"}, "[9]": {"details": "Cage 6, IV 50 mg/kg/inj days 1,3,5,7, total 200 mg/kg"}, "[10]": {"details": "Cage 7, IV 30 mg/kg/inj days 1,3,5,7, total 120 mg/kg"}}}
{"smiles": "C[C@@H](Oc1ccc(Oc2ccc3ccc(Cl)cc3n2)cc1)C(=O)O", "note": "[Compound R-22b, (R) 2-[4-(7-chloroquinolin-2-yloxy)phenoxy]propanoic acid]", "values": [{"measurement": "Neuromuscular toxicity", "setting": "[1]; Cage 6, IV 83 mg/kg/inj qd 1-4", "value": "neuromuscular toxicity was not produced"}, {"measurement": "% Body Wt Loss at Nadir", "setting": "[1]; [3]", "value": "−17.5", "unit": "%"}, {"measurement": "% T/C mass", "setting": "[1]; [3]", "value": "toxic"}, {"measurement": "Activity Rating", "setting": "[1]; [3]", "value": "toxic"}, {"measurement": "Cause of death", "setting": "[1]; [3]", "value": "GI-epithelial damage"}, {"measurement": "Day of Nadir", "setting": "[1]; [3]", "value": 6, "unit": "days"}, {"measurement": "Drug Deaths", "setting": "[1]; [3]", "value": "5/5"}, {"measurement": "Median Tumor Mass on day 9 (Range)", "setting": "[1]; [3]", "value": "toxic"}, {"measurement": "Tumor Free day-23", "setting": "[1]; [3]", "value": "0/5"}, {"measurement": "Drug Deaths", "setting": "[1]; Cage 6, IV 83 mg/kg/inj qd 1-4, total 332 mg/kg, listed as R-enantiomer of compound 22b", "value": "killing all of the 5 mice"}, {"measurement": "% Body Wt Loss at Nadir", "setting": "[1]; [4]", "value": "−23.4", "unit": "%"}, {"measurement": "% T/C mass", "setting": "[1]; [4]", "value": 0, "unit": "%"}, {"measurement": "Activity Rating", "setting": "[1]; [4]", "value": "++++ (>2.8)"}, {"measurement": "Cause of death", "setting": "[1]; [4]", "value": "GI-epithelial damage (diarrhea) complicated with marrow toxicity"}, {"measurement": "Day of Nadir", "setting": "[1]; [4]", "value": 9, "unit": "days"}, {"measurement": "Day of full recovery of body weight", "setting": "[1]; [4]", "value": 14, "unit": "days"}, {"measurement": "Day tumors reached 1000 mg (range)", "setting": "[1]; [4]", "value": "22 (18-23) day"}, {"measurement": "Drug Deaths", "setting": "[1]; [4]", "value": "1/5"}, {"measurement": "Growth Delay", "setting": "[1]; [4]", "value": 13, "unit": "days"}, {"measurement": "Log Kill", "setting": "[1]; [4]", "value": 3.3}, {"measurement": "Median Tumor Mass on day 9 (Range)", "setting": "[1]; [4]", "value": "0 (all zeros) mg"}, {"measurement": "Tumor Free day-23", "setting": "[1]; [4]", "value": "0/5"}, {"measurement": "% Body Wt Loss at Nadir", "setting": "[1]; [5]", "value": "−23.4", "unit": "%"}, {"measurement": "% T/C mass", "setting": "[1]; [5]", "value": 0, "unit": "%"}, {"measurement": "% Body Wt Loss at Nadir", "setting": "[1]; [6]", "value": 0, "unit": "%"}, {"measurement": "Activity Rating", "setting": "[1]; [6]", "value": "+ (0.7-1.2)"}, {"measurement": "Day of Nadir", "setting": "[1]; [6]", "value": 9, "unit": "days"}, {"measurement": "Drug Deaths", "setting": "[1]; [6]", "value": "0/1"}, {"measurement": "Growth Delay", "setting": "[1]; [6]", "value": 3, "unit": "days"}, {"measurement": "Log Kill", "setting": "[1]; [6]", "value": 0.8}, {"measurement": "Median Tumor Mass on day 9 (Range)", "setting": "[1]; [6]", "value": "340 (one mouse) mg"}, {"measurement": "Neuromuscular toxicity", "setting": "[1]; [6]", "value": "no neuromuscular toxicity"}, {"measurement": "Tumor Free day-23", "setting": "[1]; [6]", "value": "0/1"}, {"measurement": "% T/C mass", "setting": "[1]; Cage 8 (one mouse), IV single bolus 124.5 mg/kg day 1, 124.5 mg/kg", "value": 35, "unit": "%"}, {"measurement": "% T/C mass", "setting": "[1]; Cage 8 (one mouse), IV single bolus 124.5 mg/kg day 1, listed as R-enantiomer of compound 22b, 124.5 mg/kg", "value": 35, "unit": "%"}, {"measurement": "% Body Wt change at nadir", "setting": "colon carcinoma 26", "value": "−6.2", "unit": "%"}, {"measurement": "Activity Rating", "setting": "colon carcinoma 26", "value": "++ (1.3-1.9)"}, {"measurement": "CR's", "setting": "colon carcinoma 26", "value": "1/6"}, {"measurement": "Drug Deaths", "setting": "colon carcinoma 26", "value": "0/6"}, {"measurement": "Growth Delay", "setting": "colon carcinoma 26", "value": 8, "unit": "days"}, {"measurement": "Log Kill", "setting": "colon carcinoma 26", "value": 1.4}, {"measurement": "Median time for tumors to 700 mg (range)", "setting": "colon carcinoma 26", "value": "21 (15.5-48) days"}, {"measurement": "PR's", "setting": "colon carcinoma 26", "value": "1/6"}, {"measurement": "Tumor Free day-156", "setting": "colon carcinoma 26", "value": "0/6"}, {"measurement": "day of nadir", "setting": "colon carcinoma 26", "value": 16, "unit": "days"}, {"measurement": "% T/C mass", "setting": "[2]; [7]", "value": 0, "unit": "%"}, {"measurement": "Activity Rating", "setting": "[2]; [7]", "value": "+++ (2.0-2.8)"}, {"measurement": "Drug Deaths", "setting": "[2]; [7]", "value": "0/5"}, {"measurement": "Growth Delay", "setting": "[2]; [7]", "value": 7.0, "unit": "days"}, {"measurement": "Log Kill", "setting": "[2]; [7]", "value": 2.1}, {"measurement": "Median Tumor Mass on Day 10 (Range)", "setting": "[2]; [7]", "value": 0, "unit": "mg"}, {"measurement": "Median time for tumors to 1000 mg (range)", "setting": "[2]; [7]", "value": "16.5 (13.5-18) days"}, {"measurement": "Tumor Free day-155", "setting": "[2]; [7]", "value": "0/5"}, {"measurement": "% T/C mass", "setting": "[2]; [8]", "value": 0, "unit": "%"}, {"measurement": "Drug Deaths", "setting": "[2]; [8]", "value": "no deaths"}, {"measurement": "% T/C mass", "setting": "[2]; [9]", "value": 5, "unit": "%"}, {"measurement": "Activity Rating", "setting": "[2]; [9]", "value": "++ (1.3-1.9)"}, {"measurement": "Drug Deaths", "setting": "[2]; [9]", "value": "0/5"}, {"measurement": "Growth Delay", "setting": "[2]; [9]", "value": 5.8, "unit": "days"}, {"measurement": "Log Kill", "setting": "[2]; [9]", "value": 1.7}, {"measurement": "Median Tumor Mass on Day 10 (Range)", "setting": "[2]; [9]", "value": 75, "unit": "mg"}, {"measurement": "Median time for tumors to 1000 mg (range)", "setting": "[2]; [9]", "value": "15.3 (14-17) days"}, {"measurement": "Tumor Free day-155", "setting": "[2]; [9]", "value": "0/5"}, {"measurement": "% T/C mass", "setting": "[2]; Cage 6, IV 50 mg/kg/inj days 1,3,5,7, total 200 mg/kg, listed as R-enantiomer of compound 22b", "value": 5, "unit": "%"}, {"measurement": "% T/C mass", "setting": "[2]; [10]", "value": 32, "unit": "%"}, {"measurement": "Activity Rating", "setting": "[2]; [10]", "value": "+ (0.7-1.2)"}, {"measurement": "Drug Deaths", "setting": "[2]; [10]", "value": "0/5"}, {"measurement": "Growth Delay", "setting": "[2]; [10]", "value": 2.5, "unit": "days"}, {"measurement": "Log Kill", "setting": "[2]; [10]", "value": 0.8}, {"measurement": "Median Tumor Mass on Day 10 (Range)", "setting": "[2]; [10]", "value": 486, "unit": "mg"}, {"measurement": "Median time for tumors to 1000 mg (range)", "setting": "[2]; [10]", "value": "12 (11.5-14) days"}, {"measurement": "Tumor Free day-155", "setting": "[2]; [10]", "value": "0/5"}, {"measurement": "% T/C mass", "setting": "[2]; Cage 7, IV 30 mg/kg/inj days 1,3,5,7, total 120 mg/kg, listed as R-enantiomer of compound 22b", "value": 32, "unit": "%"}, {"measurement": "Neuromuscular toxicity", "setting": "[2]; mouse, in vivo, iv", "value": "completely devoid of neuromuscular toxicity"}]}
